Results: patent publication US20260083865A1, “PROSTATE SPECIFIC MEMBRANE ANTIGEN (PSMA) LIGANDS AND USE THEREOF” (priority 2022, published 2026)
Like-named read-outs stand apart in the source and are kept apart here. Numbered stars: 1 amine (or outer) side, 2 acyl side, 3 side chain; on linkers, the order of the positions; unused ones are H or OH. Bridge positions count the residues as written; N and C are the ends. Square brackets hold non-standard residues; d marks the D form. Peptide text beside a SMILES is read from it. * marks the point of attachment. DOTA = O=C(O)CN1CCN(CC(=O)O)CCN(CC(=O)*)CCN(CC(=O)O)CC1; Trp(6-Cl) = N[C@@H](Cc1c[nH]c2cc(Cl)ccc12)C(=O)O; Oic = O=C(O)[C@@H]1C[C@@H]2CCCC[C@@H]2N1; Phe(3-Cl) = N[C@@H](Cc1cccc(Cl)c1)C(=O)O; Phe(4-Cl) = N[C@@H](Cc1ccc(Cl)cc1)C(=O)O; Arg(Me) = CNC(=N)NCCC[C@H](N)C(=O)O; X1 = O=C(CC1CCN([*:1])CC1)[*:2]; Cit = NC(=O)NCCC[C@H](N)C(=O)O; Tle = CC(C)(C)[C@H](N)C(=O)O; Pyridin(2-yl) = c1ccc(*)nc1; Nle = CCCC[C@H](N)C(=O)O; Orn = NCCC[C@H](N)C(=O)O; Aib = CC(C)(N)C(=O)O; CO = O=C([*:1])[*:2]; βAla = NCCC(=O)O; NHBu = CCCCN*

Key:
[1] = target: T1, Fc-fusion protein of human PSMA (hPSMA-Fc) (Homo sapiens, UniProt Q04609); experiment: Surface plasmon resonance assay (Biacore T200, single cycle kinetic); format: binding; settings: read-out: pKD CAT (converted)
T1 construct: purchased Acro Biosystems PSA-H5264
Summary of the method: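 hPSMA-Fc was captured (~1000 RU) on an Fc-binding-peptide CM5 chip, and compounds were run in single cycle kinetic mode at 25° C in HBST with 0.1% DMSO. Double-blank-corrected sensorgrams were fitted to a 1:1 Langmuir model to give KD, reported as pKD.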

[2] = target: T2, PSMA-expressing C4-2 cells (Homo sapiens, UniProt Q04609); experiment: FACS binding assay (competition with 50 nM PSM-0183); settings: read-out: pIC50 [C4-2] CAT (converted)
T2 construct: PSMA-expressing C4-2 cells (ATCC, Cat. No. CRL-3314) were cultured in RPMI-1640; host or cells: C4-2 cells
Summary of the method: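 C4-2 cells were incubated 1 h at 4 °C with 50 nM AF488-labelled peptide PSM-0183 plus increasing test compound concentrations, then washed twice in ice-cold buffer. Median fluorescence in the AF488 channel was read by flow cytometry. IC50/pIC50 was derived by 4PL fitting of MFI versus concentration.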

[3] = pKD category for PSMA SPR activity assay, hPSMA-Fc, 25° C.
[4] = pIC50 category of FACS binding, C4-2 cells
[5] = PSMA SPR assay, hPSMA-Fc, 25° C., pKD category
[6] = FACS binding, PSMA-expressing C4-2 cells, pIC50 category

T2 sequence (Q04609 whole entry): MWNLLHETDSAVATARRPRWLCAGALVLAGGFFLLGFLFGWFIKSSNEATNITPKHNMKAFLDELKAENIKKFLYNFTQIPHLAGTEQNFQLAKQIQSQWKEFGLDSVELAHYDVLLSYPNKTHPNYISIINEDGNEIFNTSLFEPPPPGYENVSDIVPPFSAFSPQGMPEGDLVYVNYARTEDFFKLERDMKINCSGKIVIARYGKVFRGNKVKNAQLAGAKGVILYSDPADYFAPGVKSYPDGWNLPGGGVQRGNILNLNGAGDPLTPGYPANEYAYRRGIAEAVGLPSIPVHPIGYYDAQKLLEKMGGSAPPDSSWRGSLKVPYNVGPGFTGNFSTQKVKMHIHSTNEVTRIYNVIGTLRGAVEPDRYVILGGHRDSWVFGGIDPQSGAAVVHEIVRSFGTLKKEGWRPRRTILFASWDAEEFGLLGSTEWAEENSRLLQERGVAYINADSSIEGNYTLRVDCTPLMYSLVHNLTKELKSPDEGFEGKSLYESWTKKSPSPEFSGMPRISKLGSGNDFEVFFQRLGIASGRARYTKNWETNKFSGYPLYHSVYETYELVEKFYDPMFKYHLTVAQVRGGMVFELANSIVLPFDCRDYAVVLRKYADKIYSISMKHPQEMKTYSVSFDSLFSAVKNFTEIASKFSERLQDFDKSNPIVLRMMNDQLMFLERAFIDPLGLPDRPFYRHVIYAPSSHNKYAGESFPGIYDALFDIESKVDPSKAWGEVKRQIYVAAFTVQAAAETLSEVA
T1 sequence (Q04609 44-750 limits assumed): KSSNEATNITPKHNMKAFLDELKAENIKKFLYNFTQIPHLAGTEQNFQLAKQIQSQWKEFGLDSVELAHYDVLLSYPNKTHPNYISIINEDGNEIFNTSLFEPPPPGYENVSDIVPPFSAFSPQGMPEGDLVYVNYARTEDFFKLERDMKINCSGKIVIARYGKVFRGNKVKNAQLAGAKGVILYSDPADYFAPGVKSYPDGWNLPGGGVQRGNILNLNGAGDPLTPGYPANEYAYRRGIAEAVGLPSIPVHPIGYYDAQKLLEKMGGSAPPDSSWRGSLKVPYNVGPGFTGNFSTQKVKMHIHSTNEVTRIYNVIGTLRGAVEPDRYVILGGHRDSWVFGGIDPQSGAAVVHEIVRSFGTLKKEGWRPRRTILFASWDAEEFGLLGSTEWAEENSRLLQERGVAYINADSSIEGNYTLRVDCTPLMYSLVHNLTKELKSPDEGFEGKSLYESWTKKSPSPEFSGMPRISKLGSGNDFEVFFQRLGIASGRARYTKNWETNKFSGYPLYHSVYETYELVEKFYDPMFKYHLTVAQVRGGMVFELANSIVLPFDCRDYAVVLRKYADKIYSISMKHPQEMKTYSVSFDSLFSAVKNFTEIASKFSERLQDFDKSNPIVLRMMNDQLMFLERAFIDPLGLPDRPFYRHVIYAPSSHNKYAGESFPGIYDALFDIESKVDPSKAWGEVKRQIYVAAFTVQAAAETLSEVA

Compound: CCCC[C@H](NC(=O)[C@@H]1CSSC[C@H](NC(=O)[C@H](Cc2ccccc2)NC(=O)[C@H](C)NC(=O)[C@@H](NC(C)=O)[C@@H](C)O)C(=O)N2CCC[C@H]2C(=O)N[C@@H](CCCNC(=N)N)C(=O)N[C@@H](C)C(=O)N[C@@H](CC(N)=O)C(=O)N1)C(=O)N[C@H](C(=O)N[C@@H](CC(=O)O)C(N)=O)[C@@H](C)O [PSM-0544, Ac-Thr-Als-Phe-[Cys-Pro-Arg-Ala-Asn-Cys]-Nle-Thr-Asp-NH2] (Ac-TAFCPRANC[Nle]TD-NH2; disulfide 4-9)
- Kd [1, 3]: > 501 nM
- IC50 [2, 4]: > 3160 nM

Compound: CCCCNC(=O)N[C@H](C(=O)NC(C)(C)C(=O)N[C@@H](Cc1cccc(Cl)c1)C(=O)N[C@H]1CSSC[C@@H](C(=O)N[C@H](C(=O)N[C@H](C(=O)N2CCC(CC(=O)N[C@H](CCCCNC(=O)CN3CCN(CC(=O)O)CCN(CC(=O)O)CCN(CC(=O)O)CC3)C(N)=O)CC2)[C@@H](C)O)C(C)(C)C)NC(=O)[C@H](CC(N)=O)NC(=O)C(C)(C)NC(=O)[C@H](CCCNc2ccccn2)NC(=O)[C@H](CCCCN)NC1=O)[C@@H](C)O [PSM-0571, nBuCAyl-Thr-Aib-Mcf-[Cys-Lys-Opy-Aib-Asn-Cys]-Tle-Thr-Cmp-lys(DOTA)-NH2] ({NHBu-CO}-T[Aib][Phe(3-Cl)]CK[Orn](Pyridin(2-yl))[Aib]NC[Tle]T[X1][dK](DOTA)-NH2; disulfide 4-9)
- Kd ([1]; PSMA SPR assay, category): 12.6 to 126 nM
- IC50 ([2]; FACS binding, C4-2 cells, category): 200 to 1260 nM

Compound: C[C@@H](O)[C@H](NC(=O)CN1CCN(CC(=O)O)CCN(CC(=O)O)CCN(CC(=O)O)CC1)C(=O)NC(C)(C)C(=O)N[C@@H](Cc1ccccc1)C(=O)N[C@H]1CSSC[C@@H](C(=O)N[C@H](C(=O)NCCC(N)=O)C(C)(C)C)NC(=O)[C@H](CC(N)=O)NC(=O)C(C)(C)NC(=O)[C@H](CCCNC(=N)N)NC(=O)[C@H](CCCCN)NC1=O [PSM-0539, DOTA-Thr-Aib-Phe-[Cys-Lys-Arg-Aib-Asn-Cys]-Tle-Bal-NH2] ({DOTA}-T[Aib]FCKR[Aib]NC[Tle][βAla]-NH2; disulfide 4-9)
- Kd [1, 3]: 12.6 to 126 nM
- IC50 [2, 4]: < 200 nM

Compound: C[C@@H](O)[C@H](NC(=O)[C@@H](NC(=O)[C@@H]1CSSC[C@H](NC(=O)[C@H](Cc2ccc(Cl)cc2)NC(=O)C(C)(C)NC(=O)[C@@H](NC(=O)CC2CCN(C(=O)CN3CCN(CC(=O)O)CCN(CC(=O)O)CCN(CC(=O)O)CC3)CC2)[C@@H](C)O)C(=O)N[C@@H](CCCCN)C(=O)N[C@@H](CCCN)C(=O)NC(C)(C)C(=O)N[C@@H](CC(N)=O)C(=O)N1)C(C)(C)C)C(N)=O [PSM-0245, DOTA-Cmp-Thr-Aib-Pcf-[Cys-Lys-Orn-Aib-Asn-Cys]-Tle-Thr-NH2] ({DOTA}-[X1]T[Aib][Phe(4-Cl)]CK[Orn][Aib]NC[Tle]T-NH2; disulfide 5-10)
- Kd ([1]; SPR, hPSMA-Fc, single cycle kinetic, 25° C., category): < 12.6 nM
- IC50 ([2]; FACS binding, C4-2 cells, competition with 50 nM PSM-0183, category): < 200 nM

Compound: CNC(=N)NCCC[C@@H]1NC(=O)[C@H](CCCCN)NC(=O)[C@@H](NC(=O)[C@H](Cc2ccc(Cl)cc2)NC(=O)C(C)(C)NC(=O)[C@@H](NC(=O)CC2CCN(C(=O)CN3CCN(CC(=O)O)CCN(CC(=O)O)CCN(CC(=O)O)CC3)CC2)[C@@H](C)O)CSSC[C@@H](C(=O)N[C@H](C(N)=O)C(C)(C)C)NC(=O)[C@H](CC(N)=O)NC(=O)C(C)(C)NC1=O [PSM-0345, DOTA-Cmp-Thr-Aib-Pcf-[Cys-Lys-Arg(Me)-Aib-Asn-Cys]-Tle-NH2] ({DOTA}-[X1]T[Aib][Phe(4-Cl)]CK[Arg(Me)][Aib]NC[Tle]-NH2; disulfide 5-10)
- Kd [1, 5]: < 12.6 nM
- IC50 [2, 6]: < 200 nM

Compound: CC(=O)N[C@H](C(=O)NC(C)(C)C(=O)N[C@@H](Cc1ccccc1)C(=O)N[C@H]1CSSC[C@@H](C(=O)N[C@H](C(=O)N[C@H](C(=O)N[C@@H](CC(=O)O)C(N)=O)[C@@H](C)O)C(C)(C)C)NC(=O)[C@H](CC(N)=O)NC(=O)[C@@H]2C[C@@H]3CCCC[C@@H]3N2C(=O)[C@H](CCCNC(=N)N)NC(=O)[C@H](CCCCN)NC1=O)[C@@H](C)O [PSM-0403, Ac-Thr-Aib-Phe-[Cys-Lys-Arg-Oic-Asn-Cys]-Tle-Thr-Asp-NH2] (Ac-T[Aib]FCKR[Oic]NC[Tle]TD-NH2; disulfide 4-9)
- Kd [1, 3]: < 12.6 nM
- IC50 [2, 4]: < 200 nM

Compound: C[C@@H](O)[C@H](NC(=O)[C@@H](NC(=O)[C@@H]1CSSC[C@H](NC(=O)[C@H](Cc2c[nH]c3cc(Cl)ccc23)NC(=O)C(C)(C)NC(=O)[C@@H](NC(=O)CC2CCN(C(=O)CN3CCN(CC(=O)O)CCN(CC(=O)O)CCN(CC(=O)O)CC3)CC2)[C@@H](C)O)C(=O)N[C@@H](CCCCN)C(=O)N[C@@H](CCCNC(N)=O)C(=O)NC(C)(C)C(=O)N[C@@H](CC(N)=O)C(=O)N1)C(C)(C)C)C(N)=O [PSM-0304, DOTA-Cmp-Thr-Aib-6Clw-[Cys-Lys-Cit-Aib-Asn-Cys]-Tle-Thr-NH2] ({DOTA}-[X1]T[Aib][Trp(6-Cl)]CK[Cit][Aib]NC[Tle]T-NH2; disulfide 5-10)
- Kd [1, 5]: < 12.6 nM
- IC50 [2, 6]: 200 to 1260 nM
